Test results reported in patent US10287305B2, “Substituted piperidine compound and use thereof” (Takeda Pharmaceutical Company Limited, priority 2016, dated 2019).

Biological target: human orexin type 2 receptor (hOX2R) (Homo sapiens (Human), UniProt O43614)
Assay: Measurement of orexin type 2 receptor agonist activity (Experimental Example 2-1, FLIPR TETRA, intracellular Ca2+)
Type: cell-based
Conditions: CHO dhfr- cells expressing hOX2R; for Emax: read-out: Emax (%); for Emax at 30 µM: value at 30 uM concentration, orexin B as full agonist = 100%
[1] = agonist activity, 10 nM human orexin B = 100%

Chain of human orexin type 2 receptor (hOX2R) (O43614 whole entry): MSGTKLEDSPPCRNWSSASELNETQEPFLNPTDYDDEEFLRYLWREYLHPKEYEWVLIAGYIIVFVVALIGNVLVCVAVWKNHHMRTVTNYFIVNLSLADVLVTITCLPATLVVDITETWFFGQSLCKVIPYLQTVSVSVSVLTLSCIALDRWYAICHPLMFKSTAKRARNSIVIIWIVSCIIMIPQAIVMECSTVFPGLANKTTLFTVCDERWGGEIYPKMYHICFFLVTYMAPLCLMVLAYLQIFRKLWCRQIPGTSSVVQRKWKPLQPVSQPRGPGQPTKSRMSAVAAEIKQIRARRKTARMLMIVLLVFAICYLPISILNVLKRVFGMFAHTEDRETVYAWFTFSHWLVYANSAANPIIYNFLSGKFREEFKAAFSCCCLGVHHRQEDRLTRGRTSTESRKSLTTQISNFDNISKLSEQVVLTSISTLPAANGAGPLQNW

Row | SMILES | EC50 (FLIPR TETRA, Fluo-4AM) [nM] | Emax (FLIPR TETRA, Fluo-4AM) [%] | EC50 [1] [nM] | Emax at 30 µM [%]
1 | CC(=O)N1CCC[C@H](NS(C)(=O)=O)[C@@H]1COC1CCC(c2ccccc2)C1 (relative stereo) [Example 337, N-(cis-1-acetyl-2-(((3-phenylcyclopentyl)oxy)methyl)-piperidin-3-yl)methanesulfonamide] | 2400 | 88 | – | –
2 | COC(=O)N1CCC[C@H](NS(C)(=O)=O)[C@@H]1COC1CCC(c2ccccc2)C1 (relative stereo) [Example 338, methyl cis-3-((methylsulfonyl)amino)-2-(((3-phenylcyclopentyl)oxy)methyl)-piperidine-1-carboxylate] | 490 | 83 | – | –
3 | CCNC(=O)N1CCC[C@H](NS(C)(=O)=O)[C@@H]1COC1CCC(c2ccccc2)C1 (relative stereo) [Example 339, cis-N-ethyl-3-((methylsulfonyl)amino)-2-(((3-phenylcyclopentyl)oxy)methyl)-piperidine-1-carboxamide] | 11 | 101 | – | –
4 | CC(C)OC(=O)N1CCC[C@H](NS(C)(=O)=O)[C@@H]1CO[C@@H]1CCN(c2ncccn2)C[C@H]1F (relative stereo) [Example 341, isopropyl cis-2-(((trans-3-fluoro-1-(pyrimidin-2-yl)piperidin-4-yl)oxy)methyl)-3-((methylsulfonyl)amino)piperidine-1-carboxylate] | 13 | 103 | – | –
5 | CC(C)OC(=O)N1CCC[C@H](NS(C)(=O)=O)[C@@H]1CO[C@H]1CCN(c2ncccn2)C[C@H]1F (relative stereo) [Example 342, isopropyl cis-2-(((cis-3-fluoro-1-(pyrimidin-2-yl)piperidin-4-yl)oxy)methyl)-3-((methylsulfonyl)amino)piperidine-1-carboxylate] | 30 | 104 | – | –
6 | CC(C)OC(=O)N1CCC[C@H](NS(C)(=O)=O)[C@@H]1CO[C@@H]1CCN(c2ncccn2)[C@H](C)C1 (stereo in doubt) [Example 329, isopropyl cis-2-(((cis-2-methyl-1-(pyrimidin-2-yl)piperidin-4-yl)oxy)methyl)-3-((methylsulfonyl)amino)piperidine-1-carboxylate] | 22 | 93 | – | –
7 | CC(=O)N1CCC[C@H](NS(C)(=O)=O)[C@@H]1CO[C@H]1CC[C@@H](c2ccccc2)CC1 [Example 4, N-((2R,3S)-1-acetyl-2-(((cis-4-phenylcyclohexyl)oxy)methyl)piperidin-3-yl)methanesulfonamide] | – | – | 44 | 106
8 | CS(=O)(=O)N[C@H]1CCCN[C@H]1CO[C@H]1CC[C@@H](c2cc(F)cc(F)c2)CC1 [Example 7, N-((2R,3S)-2-(((cis-4-(3,5-difluorophenyl)cyclohexyl)oxy)methyl)piperidin-3-yl)methanesulfonamide] | – | – | 250 | 100
9 | CC(=O)N1CCC[C@H](NS(C)(=O)=O)[C@@H]1CO[C@H]1CC[C@@H](c2cc(F)cc(F)c2)CC1 [Example 8, N-((2R,3S)-1-acetyl-2-(((cis-4-(3,5-difluorophenyl)cyclohexyl)oxy)methyl)piperidin-3-yl)methanesulfonamide] | – | – | 5.6 | 96
10 | CS(=O)(=O)N[C@H]1CCCN[C@H]1CO[C@H]1CC[C@@H](c2cc(F)ccc2F)CC1 [Example 10, N-((2R,3S)-2-(((cis-4-(2,5-difluorophenyl)cyclohexyl)oxy)methyl)piperidin-3-yl)methanesulfonamide] | – | – | 220 | 113
11 | COC(=O)N1CCC[C@H](NS(C)(=O)=O)[C@@H]1CO[C@H]1CC[C@@H](c2cc(F)ccc2F)CC1 [Example 11, methyl (2R,3S)-2-(((cis-4-(2,5-difluorophenyl)cyclohexyl)oxy)methyl)-3-((methylsulfonyl)amino)piperidine-1-carboxylate] | – | – | 2 | 114
12 | CS(=O)(=O)N[C@H]1CCCN[C@H]1CO[C@H]1CC[C@@H](c2c(F)cccc2F)CC1 [Example 13, N-((2R,3S)-2-(((cis-4-(2,6-difluorophenyl)cyclohexyl)oxy)methyl)piperidin-3-yl)methanesulfonamide] | – | – | 130 | 115
13 | CC(=O)N1CCC[C@H](NS(C)(=O)=O)[C@@H]1CO[C@H]1CC[C@@H](c2c(F)cccc2F)CC1 [Example 14, N-((2R,3S)-1-acetyl-2-(((cis-4-(2,6-difluorophenyl)cyclohexyl)oxy)methyl)piperidin-3-yl)methanesulfonamide] | – | – | 6.6 | 105
14 | CS(=O)(=O)N[C@H]1CCCN(C(=O)C2CC2)[C@H]1CO[C@H]1CC[C@@H](c2cccc(F)c2)CC1 [Example 16, N-((2R,3S)-1-(cyclopropylcarbonyl)-2-(((cis-4-(3-fluorophenyl)cyclohexyl)oxy)methyl)piperidin-3-yl)methanesulfonamide] | – | – | 0.84 | 99
15 | CS(=O)(=O)N[C@H]1CCCN[C@H]1CO[C@H]1CC[C@@H](c2cccc(F)c2F)CC1 [Example 18, N-((2R,3S)-2-(((cis-4-(2,3-difluorophenyl)cyclohexyl)oxy)methyl)piperidin-3-yl)methanesulfonamide] | – | – | 520 | 96
16 | CC(=O)N1CCC[C@H](NS(C)(=O)=O)[C@@H]1CO[C@H]1CC[C@@H](c2cccc(F)c2F)CC1 [Example 19, N-((2R,3S)-1-acetyl-2-(((cis-4-(2,3-difluorophenyl)cyclohexyl)oxy)methyl)piperidin-3-yl)methanesulfonamide] | – | – | 12 | 102
17 | COC(=O)N1CCC[C@H](NS(C)(=O)=O)[C@@H]1CO[C@H]1CC[C@@H](c2cccc(F)c2F)CC1 [Example 20, methyl (2R,3S)-2-(((cis-4-(2,3-difluorophenyl)cyclohexyl)oxy)methyl)-3-((methylsulfonyl)amino)piperidine-1-carboxylate] | – | – | – | 100
18 | CS(=O)(=O)N[C@H]1CCCN[C@H]1CO[C@H]1CC[C@@H](c2c(F)ccc(F)c2F)CC1 [Example 21, N-((2R,3S)-2-(((cis-4-(2,3,6-trifluorophenyl)cyclohexyl)oxy)methyl)piperidin-3-yl)methanesulfonamide] | – | – | 200 | 108
19 | CC(=O)N1CCC[C@H](NS(C)(=O)=O)[C@@H]1CO[C@H]1CC[C@@H](c2c(F)ccc(F)c2F)CC1 [Example 22, N-((2R,3S)-1-acetyl-2-(((cis-4-(2,3,6-trifluorophenyl)cyclohexyl)oxy)methyl)piperidin-3-yl)methanesulfonamide] | – | – | 5.3 | 98
20 | CS(=O)(=O)N[C@H]1CCCN[C@H]1CO[C@H]1CC[C@@H](c2ccccc2C(F)(F)F)CC1 [Example 23, N-((2R,3S)-2-(((cis-4-(2-(trifluoromethyl)phenyl)cyclohexyl)oxy)methyl)piperidin-3-yl)methanesulfonamide] | – | – | 1200 | 90
21 | CC(=O)N1CCC[C@H](NS(C)(=O)=O)[C@@H]1CO[C@H]1CC[C@@H](c2ccccc2C(F)(F)F)CC1 [Example 24, N-((2R,3S)-1-acetyl-2-(((cis-4-(2-(trifluoromethyl)phenyl)cyclohexyl)oxy)methyl)piperidin-3-yl)methanesulfonamide] | – | – | 21 | 102
22 | CS(=O)(=O)N[C@H]1CCCN(C(=O)CO)[C@H]1CO[C@H]1CC[C@@H](c2cccc(F)c2F)CC1 [Example 25, N-((2R,3S)-2-(((cis-4-(2,3-difluorophenyl)cyclohexyl)oxy)methyl)-1-glycoloylpiperidin-3-yl)methanesulfonamide] | – | – | 7.9 | 94
23 | COc1ccccc1[C@H]1CC[C@@H](OC[C@@H]2NCCC[C@@H]2NS(C)(=O)=O)CC1 [Example 27, N-((2R,3S)-2-(((cis-4-(2-methoxyphenyl)cyclohexyl)oxy)methyl)piperidin-3-yl)methanesulfonamide] | – | – | 310 | 108
24 | COc1ccccc1[C@H]1CC[C@@H](OC[C@H]2[C@@H](NS(C)(=O)=O)CCCN2C(=O)C2CC2)CC1 [Example 28, N-((2R,3S)-1-(cyclopropylcarbonyl)-2-(((cis-4-(2-methoxyphenyl)cyclohexyl)oxy)methyl)piperidin-3-yl)methanesulfonamide] | – | – | 2.7 | 96
25 | CC(C)OC(=O)N1CCC[C@H](NS(=O)(=O)N(C)C)[C@@H]1COC1CCN(c2ncccn2)CC1 [Example 29, isopropyl (2R,3S)-3-((dimethylsulfamoyl)amino)-2-(((1-(pyrimidin-2-yl)piperidin-4-yl)oxy)methyl)piperidine-1-carboxylate] | – | – | 17 | 104
26 | CS(=O)(=O)N[C@H]1CCCN(C(=O)C2CC2)[C@H]1CO[C@H]1CC[C@@H](c2ccccc2)CC1 [Example 31, N-((2R,3S)-1-(cyclopropylcarbonyl)-2-(((cis-4-phenylcyclohexyl)oxy)methyl)piperidin-3-yl)methanesulfonamide] | – | – | 0.66 | 95
27 | COC(=O)N1CCC[C@H](NS(C)(=O)=O)[C@@H]1CO[C@H]1CC[C@@H](c2ccccc2C(F)(F)F)CC1 [Example 32, methyl (2R,3S)-3-((methylsulfonyl)amino)-2-(((cis-4-(2-(trifluoromethyl)phenyl)cyclohexyl)oxy)methyl)piperidine-1-carboxylate] | – | – | 15 | 102
28 | CCS(=O)(=O)N[C@H]1CCCN(C(C)=O)[C@H]1CO[C@H]1CC[C@@H](C(C)C)CC1 [Example 33, N-((2R,3S)-1-acetyl-2-(((cis-4-isopropylcyclohexyl)oxy)methyl)piperidin-3-yl)ethanesulfonamide] | – | – | 68 | 98
29 | CC(=O)N1CCC[C@H](NS(C)(=O)=O)[C@@H]1CO[C@H]1CC[C@@H](C(C)C)CC1 [Example 70, N-((2R,3S)-1-acetyl-2-(((cis-4-isopropylcyclohexyl)oxy)methyl)piperidin-3-yl)methanesulfonamide] | – | – | 97 | 98
